Experimental data as given in patent US7413837B2, “Charge control agent and toner for electrostatic image development containing the same” (Orient Chemical Industries, Ltd., priority 2002, dated 2008).

Experiment: confirmatory test of the sublimation
Type: physicochemical
Conditions: 100 mg compound mixed with 2 g resin of acid value 19 mg KOH/g in crucible, heated at 190 degrees centigrade for 1 hour
Protocol: Subsequently, the confirmatory test of the sublimation of the monoazo compound was performed. 100 mg of the monoazo compound and 2 g of the resin having 19 mg KOH/g of the acid value were added into a 25 mL crucible, and mixed. A filter paper was put on the crucible. After the bottom of crucible was heated at 190 degrees centigrade for 1 hour, an under side of the filter paper was observed.
Subsequently, the confirmatory test of the sublimation of the monoazo metals-compound was performed. 100 mg of the metals-compound and 2 g of the resin having 19 mg KOH/g of the acid value are added and mixed into a 25 mL crucible. A filter paper was put on the crucible. After the bottom of the crucible was heated at 190 degrees centigrade for 1 hour, the under side of the filter paper was observed.

sublimation property (accretions of sublimates on under side of filter paper): no sublimation property
Structure (SMILES): COC(=O)Nc1cccc2ccc(O)c(N=Nc3cc(Cl)ccc3O)c12 [I-1]
